For one series, the system named is RGC apoptosis. Nature of the series: DARC in vivo imaging of OHT rat eyes, topical CoQ10. To be noted: topical on Day 0, 1, 7, 21 & 42; at 3 & 6 weeks after elevated IOP; vs control. An excerpt: FIG. 14B DARC in vivo imaging of OHT rat eyes at 3 weeks after elevated intraocular pressure (IOP) showing increased RGC apoptosis (white spots) in Control (A) compared to CoQ10-treated (B) eyes.

For series [1] the following is noted: in vivo; cited from earlier work.
The subject of a further series is Cyclophilin D. The experiment in a line: Histological cross sections of retina stained for Cyclophilin D, OHT rat eyes. The series is classed as in vivo.
Another series deals with neuronal cells. To be noted: cited from earlier work.

Entries after “also recorded” stand apart in the source; their conditions may differ.

Consider 2 compounds from patent publication US9014457B2, “Quantifying cell death” (UCL Business PLC, priority 2009, dated 2015).

For `COC1=C(OC)C(=O)C(C/C=C(\C)CC/C=C(\C)CC/C=C(\C)CC/C=C(\C)CC/C=C(\C)CC/C=C(\C)CC/C=C(\C)CC/C=C(\C)CC/C=C(\C)CCC=C(C)C)=C(C)C1=O` [CoQ10, Ubiquinone], in the series on RGC apoptosis, the RGC apoptosis entry is listed as “significantly reduced”. Also, the neuroprotection entry in series [1] is listed as “highly effective”. Moreover, the “Cyclophilin D (CyD) in retina, histological grading” value in the series on Cyclophilin D (3 weeks after induction of OHT) is “increased; also recorded: significant increase”; in the series with Cyclophilin D (12 weeks after elevated IOP), “not at 12 weeks”.

Consider `CCCCCCCCCCCCCCCCCCN1C(=CC=CC2=[N+](CCCCCCCCCCCCCCCCCC)c3ccccc3C2(C)C)C(C)(C)c2ccccc21.[O-][Cl+3]([O-])([O-])[O-]` [DiI, 1,1′-dioctadecyl-3,3,3′,3′-tetramethylindocarbocyanine perchlorate], for which the “cell viability, development or basic cellular physiological properties” value with neuronal cells is listed as “does not affect”.
